The values that follow come from patent publication US7375203B2, “Canine cold- and menthol-sensitive receptor 1” (Janssen Pharmaceutica N.V., priority 2004, dated 2008).

Test [1] concerns cCMR1 channel. The test can be described thus: Whole-cell patch clamp recording of HEK293 cells stably transfected with cCMR1. The test is classed as cell-based, canine. The procedure:
HEK293 cells stably transfected with canine cCMR1 were cultured in DMEM supplemented with 10% fetal bovine serum, 100 units/ml penicillin, 100 μg/ml streptomycin and 1 mg/ml G418. Cells were maintained at 37° C. and in 5% CO2. Unless otherwise indicated, the standard extracellular solution used for recording contained (in mM): NaCl, 132; EGTA, 1; KCl, 5.4; MgCl2, 0.8; HEPES, 10; glucose, 10; pH=7.4. In experiments where the extracellular solution contained Ca^2+, the extracellular solution used was one of the following (in mM), depending on the Ca^2+ concentration used: (1) NaCl, 132; CaCl2, 0.1 or 1.8; KCl, 5.4; MgCl2, 0.8; HEPES, 10; glucose, 10; pH=7.4; (2) NaCl, 116; CaCl2, 10; KCl, 5.4; MgCl2, 0.8; HEPES, 10; glucose, 10; pH=7.4. The intracellular solution used to fill recording pipettes contained (in mM): CsCl, 145; EGTA, 5; HEPES, 10; glucose, 5; pH=7.4. Recordings were performed using the conventional whole-cell patch clamp technique, 1-2 days after plating cells onto glass coverslips at densities appropriate for single cell recording. Currents were amplified by a patch clamp amplifier and filtered at 2 kHz (Axopatch 200B, Axon Instruments). […] Recordings involving agonist stimulations were performed at 22° C. In experiments where temperatures were varied, temperature ramps were generated by heating/cooling the perfusate in a dual in-line heater/cooler (Model SC-20, Warner Instruments, Hamden, Conn.) controlled by a bipolar temperature controller (Model CL-100, Warner Instruments). The temperature in the vicinity of the recorded cell was measured with a custom-made miniature thermo-microprobe connected to a monitoring thermometer (Model TH-8, Physitemp, Clifton, N.J.), and sampled using Digidata 1322A and pClamp 9.0 (Axon Instruments, Union City, Calif.), as were the currents concurrently measured in the whole-cell patch clamp mode. Two voltage protocols were used in these studies. The first involved a 600 ms voltage ramp from −100 mV to +60 mV at a sampling rate of 10 kHz. This voltage pulse was repeated once every 5 seconds. The cell was held at −100 mV between voltage pulses. In the second protocol, the cell was held at −80 mV and the current was continuously sampled (at 100 Hz) at this holding potential.
On the technique in general: Patch clamp records ionic current or voltage across a cell membrane.

Test [2] deals with canine CMR1 (cCMR1). In words: Cell-based calcium influx (FLIPR) assay on HEK293 cells stably transfected with cCMR1. The following applies: for calcium-mediated fluorescence (calcium influx): added at 200 seconds, room temperature. As for the experimental part: The following day, the cells were loaded with buffer and calcium dye (Molecular Devices, Sunnyvale, Calif.) in a final volume of 40 μl and incubated for 30 minutes at room temperature. The fluorescence intensity was measured by FLIPR before and after the addition of menthol or icilin, which were added to the cells at a concentration of 100 μM or 10 μM each, respectively.
HEK293 cells stably transfected with cCMR1 were seeded in a 384 will plate at a concentration of […] and incubated overnight at 37° C./5% CO2. The following day the cells were loaded with calcium dye and incubated for 30 minutes at room temperature. The calcium-mediated fluorescence intensity was measured by FLIPR before and after the compound was administered to the cells.

“Also recorded” adds a separate entry of the source.

Turning to `[Ca+2]` [extracellular Ca^2+], the “desensitization of menthol-activated cCMR1 current” value in test [1] (1.8 mM extracellular Ca^2+, 100 μM menthol, −80 mV) is on record as “desensitization readily occurred”. Besides, the “voltage dependence of inhibition of cCMR1 current amplitude” value in test [1] (10 mM extracellular Ca^2+, channel activated by 1 mM menthol) is recorded as “strongly inhibited the current amplitude at hyperpolarized potentials”. For the same compound, the IC50 (as a rule, the concentration that gives 50% inhibition) in test [1] (voltage-clamped at −80 mV, channel activated by 1 mM menthol, logistic best fit, read-out: IC50 of inhibition of cCMR1 current amplitude by extracellular Ca^2+) came out at 1600 µM.

For `O=C1NC(c2cccc([N+](=O)[O-])c2)=CCN1c1ccccc1O` [icilin], the “calcium-mediated fluorescence (activation of cCMR1)” value in test [2] (100 nM icilin (positive control)) is “sensitive; also recorded: increase in calcium-mediated fluorescence”. Besides, the “calcium-mediated fluorescence (calcium influx)” value in test [2] (10 μM icilin) was “increase in calcium-mediated fluorescence”. Besides, the “whole-cell current amplitude, rectification and reversal potential” value in test [1] (icilin (1 μM), voltage ramp protocol, compared with the menthol results) is reported as “Qualitatively similar results”.

As to `CC1CCC(C(C)C)C(O)C1` (centres unmarked) [menthol], in test [2] (100 μM (−)-menthol), the “calcium-mediated fluorescence (calcium influx)” value is “increase in calcium-mediated fluorescence”. In addition, the “reversal potential of the menthol-activated current” value in test [1] (100 μM menthol, voltage ramp protocol) is ~0 mV. Further, the whole-cell current amplitude result in test [1] (100 μM menthol, voltage ramp −100 mV to +60 mV, 22° C., compared to buffer control) is listed as “large increase of the whole-cell current amplitude”. The “current activated in the absence of extracellular Ca^2+” value in test [1] (100 μM menthol, −80 mV, no extracellular Ca^2+) is “activated a non-desensitizing current”.

Regarding `C=CCN=C=S` [mustard oil], the “calcium-mediated fluorescence (activation of cCMR1)” value in test [2] (1 mM mustard oil) is “activated; also recorded: increase in calcium-mediated fluorescence”.
